Measurements from PMC10009755, “Discovery and Characterization of BAY-805, a Potent and Selective Inhibitor of Ubiquitin-Specific Protease USP21” (Journal of Medicinal Chemistry, 2023).
≈ marks a conversion by molar mass, not a printed value. Where two headings read alike, the source gives them in different places.

Assays:
USP2 = molecular target: T1, USP2 (Homo sapiens, UniProt O75604); experiment: hUSP2 Ub-rhodamine 110 assay; assay type: biochemical; conditions: for IC50: arithmetic means of multiple measurements, read-out: IC50 hUSP2 Ub-Rhod
T1 construct: His tag
T1 sequence (O75604 259-605): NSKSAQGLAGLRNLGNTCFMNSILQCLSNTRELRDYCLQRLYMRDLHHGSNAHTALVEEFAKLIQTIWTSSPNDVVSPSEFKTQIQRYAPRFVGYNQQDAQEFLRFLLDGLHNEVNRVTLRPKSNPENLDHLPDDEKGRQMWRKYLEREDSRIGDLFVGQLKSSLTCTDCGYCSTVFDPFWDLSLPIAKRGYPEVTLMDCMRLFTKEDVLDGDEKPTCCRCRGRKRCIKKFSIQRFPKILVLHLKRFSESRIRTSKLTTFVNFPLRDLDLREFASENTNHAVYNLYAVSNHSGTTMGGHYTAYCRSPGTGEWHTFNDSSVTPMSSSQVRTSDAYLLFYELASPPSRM
Method: The final assay volume was 6 μL.

log D measurement (HPLC) = assay type: physicochemical; conditions: for chromatographic logD: reverse-phase HPLC, pH 7.5, pH 7.5, HPLC method, read-out: logD7.5; for logD7.5: pH 7.5, HPLC method
Method: log D values at pH 7.5 were recorded using an indirect method for determining hydrophobicity constants by reverse-phase HPLC. A series of compounds with well-known log D values were used for calibration. Test compounds were injected into the same HPLC system. The lipophilicity of compounds was then assessed by comparison to the calibration curve.

USP21 [1] = molecular target: T2, USP21 (Homo sapiens, UniProt Q9UK80)
T2 sequence (Q9UK80 1-565): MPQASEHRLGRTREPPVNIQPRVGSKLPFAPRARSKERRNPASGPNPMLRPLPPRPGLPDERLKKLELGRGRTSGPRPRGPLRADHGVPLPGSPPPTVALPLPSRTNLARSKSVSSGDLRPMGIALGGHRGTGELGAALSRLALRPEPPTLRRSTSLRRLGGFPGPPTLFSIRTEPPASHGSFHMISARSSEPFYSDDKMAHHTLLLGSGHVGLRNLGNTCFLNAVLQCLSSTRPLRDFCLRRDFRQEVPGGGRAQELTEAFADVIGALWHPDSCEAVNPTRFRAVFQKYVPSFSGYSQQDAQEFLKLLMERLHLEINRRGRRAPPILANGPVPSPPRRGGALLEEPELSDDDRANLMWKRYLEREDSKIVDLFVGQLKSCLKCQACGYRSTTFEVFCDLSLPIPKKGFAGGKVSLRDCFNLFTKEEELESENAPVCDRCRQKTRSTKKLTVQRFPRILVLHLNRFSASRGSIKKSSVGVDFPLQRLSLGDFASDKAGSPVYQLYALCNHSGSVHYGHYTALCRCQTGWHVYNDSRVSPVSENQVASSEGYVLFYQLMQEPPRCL
Method: To this end, we developed a USP21 activity assay that is based on the deubiquitination of a STING-derived peptide (a USP21-specific substrate[17],[18]) by purified recombinant human full-length USP21 using time-resolved fluorescence resonance energy transfer (TR-FRET) technology (referred to as a homogeneous time-resolved fluorescence (HTRF)-assay, for details see the Supporting Information).[39]
All substrate and enzyme solutions were diluted in an assay buffer. […] Incubation time was 15–20 min at room temperature. […] The stop solution (DUB inhibitor PR619, Abcam) was prepared in 25 mM HEPES, pH 7.5 (Alfa Aesar) containing 0.01% BSA and then left for 10 min at room temperature before filtering with a 0.2 μM PES Membrane (Thermo Fisher). The reaction was stopped with the addition of 2 μL of 200 μM PR619. […] The plates were measured on the ViewLux in screening or PHERAstar FSX in compound profiling. […] The number of flashes per well was set to 3. All of the experimental data were plotted using Genedata analysis. The Z′-factor and S/B of the assay were >0.7 and ∼2, respectively.

USP21 [2] = molecular target: T2, USP21; remark: listed apart in the source
Method: The final assay volume was 6 μL. […] First, 2 μL of 1 nM USP21 (or selectivity enzyme) solution was added to the compound plate and preincubated for 15–20 min at room temperature. […] The reaction was stopped by 50 mM citric acid in 25 mM HEPES, pH 7.5, containing 0.01% BSA. […] The USP21 and USP22 were measured with five flashes and USP2 and USP7 in fly mode.

USP21 [3] = molecular target: T2, USP21; experiment: Thermal shift assay (TSA); assay type: binding; set-up: purchased Ubiquigent (DUBprofiler service); conditions: 100 μM compound
Method: Experiments were carried out with the QuantStudio7 Flex Real-Time PCR system (Thermo Fisher Scientific) in a 384-well plate format with 5 μL of reaction volume. Melting curves were obtained at an USP21 protein concentration of 3.8 μM and 5xSYPRO Orange (Invitrogen) using a buffer containing 20 mM Tris, pH 7.5; 150 mM NaCl; 10% glycerol; and 1.0 mM TCEP. […] For binding experiments, compounds were added from 10 mM stock solution to a final concentration of 100 μM. As a control, 1% DMSO was used. Scans were measured from 25 to 95 °C at a scanning rate of 4 °C/min. All TSA data were analyzed using a Genedata Assay Analyzer.

Aqueous solubility = assay type: physicochemical; conditions: PBS pH 6.5, pH 6.5, PBS pH 6.5
Method: Test compounds were applied as DMSO solutions or directly from powder. After the addition of the buffer, solutions were shaken at rt for 24 h. The undissolved material was removed by filtration or centrifugation. The compound dissolved in the supernatant was quantified by HPLC-UV or HPLC-MS/MS.

NF-κB activation = experiment: NF-κB reporter assay; assay type: cell-based; conditions: HEK293T cells, up to 10 μM
Method: Yang and colleagues reported that USP21 inhibition induces NF-κB activation by preventing deubiquitination of RIP1.[15] K63 ubiquitinated RIP1 is required for NF-κB activation, and thus USP21-mediated deubiquitination of RIP1 shuts down the NF-κB pathway.
Four hours after replating, cells were treated with compounds or DMSO (note: DMSO concentrations were kept consistent across all cells). Promega Dual-Luciferase Reporter Assay kit was then used to prepare samples for Firefly and Renilla signal measurement on a CLARIOstar microplate reader (BMG) 20 h after compound treatment. Relative luciferase units were calculated by normalizing the Firefly signal to the background Renilla signal, followed by normalization to DMSO controls of wild-type USP21.

[4] = molecular target: T3, C-terminal HiBiT-tagged USP21 (Homo sapiens, UniProt Q9UK80); experiment: USP21 HiBiT CETSA; assay type: cell-based; conditions: 49 °C, HEK293T cells
T3 construct: expressed in transfected cells; host or cells: HEK293T
T3 sequence (Q9UK80 1-565): T2 sequence (Q9UK80 1-565)
Method: In particular, we utilized a HiBiT CETSA assay format[42],[43] conducted in intact HEK293T cells. Cells were transfected with USP21 fused to a small proluminescent NanoLuc HiBiT tag, which, when complemented with the Large BiT NanoLuc fragment, produces a quantifiable luminescence signal.
HEK293T cells were seeded in a six-well plate at 8 × 10^5 cells/well in 2 mL of DMEM supplemented with 10% FBS, penicillin (100 U/mL), and streptomycin (100 μg/mL) and transfected 4 h after seeding using an X-tremeGENE HP transfection reagent, following the manufacturer’s instructions with a total of 2 μg of plasmid constructs (C-terminally tagged USP21 HiBiT and empty pCDNA3.1 vector). […] The breathable paper adhesive film was then replaced with a PCR adhesive film, and cells were heated at indicated temperatures in an Applied Biosystems VeritiPro thermal cycler for 3 min, followed by 3 min incubation at rt before the addition of LgBiT solution (200 nM LgBiT, 2% NP-40, protease inhibitors (Roche cOmplete, ethylenediaminetetraacetic acid (EDTA)-free Protease Inhibitor) in OptiMEM no phenol red (Gibco)) to lyse cells.

in vitro = in vitro ADME; conditions: human, Caco-2, pH 7.2
Method: Caco-2 cells [purchased from the German Collection of Microorganisms and Cell Cultures (DSMZ)] were seeded at a density of 4.5 × 10^4 cells/well on 24-well insert plates [0.4 μm pore size, 0.3 cm^2 (Costar)] and grown for 13–15 days in DMEM medium supplemented with 10% fetal calf serum (FCS), 1% GlutaMAX (100×, Gibco), 100 U/mL penicillin, 100 μg/mL streptomycin (Gibco), and 1% nonessential amino acids (100×, Thermo Fischer Scientific). […] The medium was changed every 2–3 days.
The bidirectional transport assay for the evaluation of Caco-2 permeability was undertaken in 24-well insert plates using a robotic system (Tecan). Before the assay was run, the culture medium was replaced by a transport medium (FCS-free HEPES carbonate transport buffer pH 7.2). For the assessment of monolayer integrity, the transepithelial electrical resistance (TEER) was measured. Only monolayers with a TEER of at least 400 Ω·cm^2 were used. Test compounds were pre-dissolved in DMSO and added either to the apical or basolateral compartment at a final concentration of 2 μM. The evaluation was performed in triplicate. […] The efflux ratio (ER) basolateral (B) to apical (A) was calculated by dividing Papp B–A by Papp A–B.

Row | IC50 (USP2) | chromatographic logD (log D measurement (HPLC)) | IC50 (USP21 [1]) | IC50 (USP21 [2]) | solubility at 24 h (Aqueous solubility) | Compound | also measured
1 | > 25 µM | 2.9 | – | – | – | COCC(NC(=O)C1(C)CCCCC1)C(=O)Nc1nnc(Cc2ccc([N+](=O)[O-])cc2)s1 (stereo not shown) [Compound 9, COCC(NC(=O)C1(C)CCCCC1)C(=O)Nc2nnc(Cc3ccc(cc3)[N+](=O)[O-])s2] | –
2 | > 25 µM | – | 0.074 µM | – | – | COC[C@@H](NC(=O)C1(C)CCCCC1)C(=O)Nc1nnc(Cc2ccc([N+](=O)[O-])cc2)s1 [Compound 10, COC[C@@H](NC(=O)C1(C)CCCCC1)C(=O)Nc2nnc(Cc3ccc(cc3)[N+](=O)[O-])s2] | –
3 | > 25 µM | 2.7 | – | – | 126 µM (≈ 55.8 µg/mL) | COC[C@@H](NC(=O)C1(C)CCCCC1)C(=O)Nc1nnc(Cc2ccc(C#N)cc2)s1 [Compound 11, COC[C@@H](NC(=O)C1(C)CCCCC1)C(=O)Nc2nnc(Cc3ccc(cc3)C#N)s2] | selectivity against USP2 (USP2; vs USP21): > 780 fold; logD7.5 (log D measurement (HPLC)): 2.69; NF-κB activation (in words) (NF-κB activation): no NF-κB activation up to a concentration of 10 μM; cellular thermal stabilization of USP21 (in words) [4]: strong stabilization of USP21
4 | – | – | – | – | 19.4 µM (≈ 8.83 µg/mL) | COC[C@@H](NC(=O)C1(C)CCCCC1)C(=O)Nc1nc(C)c(Cc2ccc(C#N)cc2)s1 [Compound 12, COC[C@@H](NC(=O)C1(C)CCCCC1)C(=O)Nc2nc(C)c(Cc3ccc(cc3)C#N)s2] | –
5 | – | – | 0.065 µM | > 25 µM | – | COC[C@@H](NC(=O)C1(C)CCCCC1)C(=O)Nc1sc(Cc2ccc(C#N)cc2)nc1C [Compound 13, COC[C@@H](NC(=O)C1(C)CCCCC1)C(=O)Nc2sc(Cc3ccc(cc3)C#N)nc2C] | –
6 | – | 2.95 | – | – | 71 µM (≈ 32.4 µg/mL) | CCC1(C(=O)N[C@H](COC)C(=O)Nc2nnc(Cc3ccc(C#N)cc3)s2)CCCCC1 [Compound 14, CCC1(CCCCC1)C(=O)N[C@H](COC)C(=O)Nc2nnc(Cc3ccc(cc3)C#N)s2] | –
7 | – | 2.59 | 21.5 µM | > 25 µM | 181 µM (≈ 82.9 µg/mL) | COC[C@@H](NC(=O)C1(OC)CCCCC1)C(=O)Nc1nnc(Cc2ccc(C#N)cc2)s1 [Compound 15, COC[C@@H](NC(=O)C1(CCCCC1)OC)C(=O)Nc2nnc(Cc3ccc(cc3)C#N)s2] | –
8 | – | 2.68 | – | – | 131 µM (≈ 62.5 µg/mL) | COC[C@@H](NC(=O)C1(C(F)F)CCCCC1)C(=O)Nc1nnc(Cc2ccc(C#N)cc2)s1 [Compound 16, COC[C@@H](NC(=O)C1(CCCCC1)C(F)F)C(=O)Nc2nnc(Cc3ccc(cc3)C#N)s2] | –
9 | – | 2.95 | – | – | 10.4 µM (≈ 5.17 µg/mL) | COC[C@@H](NC(=O)C1(C(F)(F)F)CCCCC1)C(=O)Nc1nnc(Cc2ccc(C#N)cc2)s1 [Compound 17, COC[C@@H](NC(=O)C1(CCCCC1)C(F)(F)F)C(=O)Nc2nnc(Cc3ccc(cc3)C#N)s2] | logD7.5 (log D measurement (HPLC)): 3.0; Papp A→B at 2 h, 2 µM (in vitro; 2 μM, 2 h): 8.2 ×10⁻⁶ cm/s; efflux ratio at 2 h, 2 µM (in vitro; Papp B–A / Papp A–B, read-out: Caco-2 efflux ratio (ER)): 1.5

Continued, molecule first:

Row | Compound | IC50 (USP2) | chromatographic logD (log D measurement (HPLC)) | IC50 (USP21 [1]) | IC50 (USP21 [2]) | solubility at 24 h (Aqueous solubility) | also measured
10 | O=C(CNC(=O)C1CCCC1)Nc1nnc(Cc2ccc([N+](=O)[O-])cc2)s1 [Compound 2, [O-][N+](=O)c1ccc(Cc2nnc(NC(=O)CNC(=O)C3CCCC3)s2)cc1] | > 25 µM | 2.1 | > 25 µM | > 25 µM | – | ΔTm at 100 µM (USP21 [3]): 3.5 °C
11 | COCC(NC(=O)C1CCCC1)C(=O)Nc1nnc(Cc2ccc([N+](=O)[O-])cc2)s1 (stereo not shown) [Compound 4, COCC(NC(=O)C1CCCC1)C(=O)Nc2nnc(Cc3ccc(cc3)[N+](=O)[O-])s2] | – | 2.4 | – | – | – | –
12 | COCC(NC(=O)c1ccccc1)C(=O)Nc1nnc(Cc2ccc([N+](=O)[O-])cc2)s1 (stereo not shown) [Compound 5, COCC(NC(=O)c1ccccc1)C(=O)Nc2nnc(Cc3ccc(cc3)[N+](=O)[O-])s2] | > 25 µM | 2.3 | 11.8 µM | > 20.2 µM | – | –
13 | COCC(NC(=O)C(C)C)C(=O)Nc1nnc(Cc2ccc([N+](=O)[O-])cc2)s1 (stereo not shown) [Compound 6, COCC(NC(=O)C(C)C)C(=O)Nc1nnc(Cc2ccc(cc2)[N+](=O)[O-])s1] | > 25 µM | 2 | > 25 µM | > 25 µM | – | –
14 | COCC(NC(=O)C1CCCCC1)C(=O)Nc1nnc(Cc2ccc([N+](=O)[O-])cc2)s1 (stereo not shown) [Compound 7, COCC(NC(=O)C1CCCCC1)C(=O)Nc2nnc(Cc3ccc(cc3)[N+](=O)[O-])s2] | > 25 µM | 2.6 | – | – | – | –
15 | COCC(NC(=O)C1CCOCC1)C(=O)Nc1nnc(Cc2ccc([N+](=O)[O-])cc2)s1 (stereo not shown) [Compound 8, COCC(NC(=O)C1CCOCC1)C(=O)Nc2nnc(Cc3ccc(cc3)[N+](=O)[O-])s2] | > 25 µM | 1.8 | > 25 µM | > 25 µM | – | –
16 | CC(C)(O)[C@@H](NC(=O)C1(C(F)(F)F)CCCCC1)C(=O)Nc1nnc(Cc2ccc(C#N)cc2)s1 [Compound 19, CC(C)(O)[C@@H](NC(=O)C1(CCCCC1)C(F)(F)F)C(=O)Nc2nnc(Cc3ccc(cc3)C#N)s2] | – | 2.9 | – | – | 80.2 µM (≈ 40.9 µg/mL) | –
